pIC50: −log10 of the molar value.

For experiment [1], the system named is painful diabetic neuropathy. Conditions: cited from earlier work.
A further experiment addresses hNav 1.7 (Homo sapiens (Human), UniProt Q15858). Nature of the experiment: Electrophysiological evaluation, automated patch clamp IonWorks Quattro (Population Patch Clamp mode). Conditions: HEK293A cells stably expressing hNav 1.7/β1/β2; response to second depolarization pulse, pre-pulse potential set to V1/2; read-out: hNav1.7 IC50. The format is cell-based. In general terms: Patch clamp records ionic current or voltage across a cell membrane.

For experiment [2], the system named is mice and rats affected by thermal hyperalgesia. Nature of the experiment: Thermal hyperalgesia assay.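 Also: measurement times set by the study director and not disclosed.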 The format is in vivo. Conditions: oral administration, constant dose, against the vehicle treatment group; latency to escape behaviors after thermal stimulation of hind paw.

Chain of hNav 1.7 (Q15858 whole entry): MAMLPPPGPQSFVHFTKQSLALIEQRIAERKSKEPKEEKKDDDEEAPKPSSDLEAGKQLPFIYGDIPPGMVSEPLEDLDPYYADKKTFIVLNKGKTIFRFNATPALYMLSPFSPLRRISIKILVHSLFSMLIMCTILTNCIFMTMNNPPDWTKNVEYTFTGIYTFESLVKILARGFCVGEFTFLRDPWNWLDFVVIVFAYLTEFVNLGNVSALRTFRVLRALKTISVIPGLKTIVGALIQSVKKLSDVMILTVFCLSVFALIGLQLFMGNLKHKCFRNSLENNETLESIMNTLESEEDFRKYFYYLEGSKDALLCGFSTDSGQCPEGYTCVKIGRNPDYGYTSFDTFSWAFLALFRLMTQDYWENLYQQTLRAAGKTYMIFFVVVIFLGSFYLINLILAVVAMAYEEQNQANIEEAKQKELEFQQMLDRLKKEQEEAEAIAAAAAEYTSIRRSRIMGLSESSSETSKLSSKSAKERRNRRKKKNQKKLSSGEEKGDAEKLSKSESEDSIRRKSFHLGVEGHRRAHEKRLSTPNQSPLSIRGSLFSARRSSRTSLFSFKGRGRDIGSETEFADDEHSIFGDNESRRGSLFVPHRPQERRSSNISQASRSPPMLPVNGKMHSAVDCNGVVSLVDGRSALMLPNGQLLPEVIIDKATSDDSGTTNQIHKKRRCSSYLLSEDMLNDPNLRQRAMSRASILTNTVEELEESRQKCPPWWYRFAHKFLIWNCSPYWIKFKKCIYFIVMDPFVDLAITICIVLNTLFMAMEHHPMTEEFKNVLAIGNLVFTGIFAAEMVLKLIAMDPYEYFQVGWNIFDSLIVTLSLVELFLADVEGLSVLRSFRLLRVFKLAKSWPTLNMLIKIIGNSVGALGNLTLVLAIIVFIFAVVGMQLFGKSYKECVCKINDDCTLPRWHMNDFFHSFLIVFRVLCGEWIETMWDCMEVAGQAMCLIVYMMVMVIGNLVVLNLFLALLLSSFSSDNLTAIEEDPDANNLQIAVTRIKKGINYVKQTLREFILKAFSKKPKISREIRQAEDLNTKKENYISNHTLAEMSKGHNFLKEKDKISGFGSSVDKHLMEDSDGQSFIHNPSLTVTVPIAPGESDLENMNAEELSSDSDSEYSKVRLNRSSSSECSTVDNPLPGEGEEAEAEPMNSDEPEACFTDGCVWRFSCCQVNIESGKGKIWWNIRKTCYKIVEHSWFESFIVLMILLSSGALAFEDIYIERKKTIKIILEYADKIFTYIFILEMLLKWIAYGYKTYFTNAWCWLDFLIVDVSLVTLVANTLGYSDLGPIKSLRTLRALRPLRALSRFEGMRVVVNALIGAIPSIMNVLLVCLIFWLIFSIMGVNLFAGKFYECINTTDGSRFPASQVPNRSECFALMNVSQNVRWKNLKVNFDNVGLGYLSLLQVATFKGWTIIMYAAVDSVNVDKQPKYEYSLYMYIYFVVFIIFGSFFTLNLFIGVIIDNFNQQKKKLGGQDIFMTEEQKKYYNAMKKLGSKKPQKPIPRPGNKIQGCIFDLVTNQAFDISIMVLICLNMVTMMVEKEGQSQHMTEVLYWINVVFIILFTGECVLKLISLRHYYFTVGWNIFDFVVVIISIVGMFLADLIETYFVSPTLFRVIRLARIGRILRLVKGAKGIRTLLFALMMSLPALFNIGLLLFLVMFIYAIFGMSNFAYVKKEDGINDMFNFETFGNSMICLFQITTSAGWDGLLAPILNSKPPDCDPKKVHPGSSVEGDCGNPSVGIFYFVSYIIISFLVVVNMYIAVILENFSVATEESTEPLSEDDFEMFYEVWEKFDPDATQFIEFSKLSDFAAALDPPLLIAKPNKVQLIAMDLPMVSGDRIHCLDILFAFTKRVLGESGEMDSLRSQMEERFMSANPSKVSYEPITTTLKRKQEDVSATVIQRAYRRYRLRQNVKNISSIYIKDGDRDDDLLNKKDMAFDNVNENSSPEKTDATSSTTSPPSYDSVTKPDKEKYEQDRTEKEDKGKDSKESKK
Chain of hNav 1.7 (Q07699 19-218 partner): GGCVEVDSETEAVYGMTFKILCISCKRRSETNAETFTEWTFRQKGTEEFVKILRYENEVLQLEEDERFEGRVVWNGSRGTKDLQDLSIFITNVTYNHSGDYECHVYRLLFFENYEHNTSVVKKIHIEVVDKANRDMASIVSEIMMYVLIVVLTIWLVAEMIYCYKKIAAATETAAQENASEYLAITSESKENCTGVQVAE
Chain of hNav 1.7 (O60939 30-215 partner): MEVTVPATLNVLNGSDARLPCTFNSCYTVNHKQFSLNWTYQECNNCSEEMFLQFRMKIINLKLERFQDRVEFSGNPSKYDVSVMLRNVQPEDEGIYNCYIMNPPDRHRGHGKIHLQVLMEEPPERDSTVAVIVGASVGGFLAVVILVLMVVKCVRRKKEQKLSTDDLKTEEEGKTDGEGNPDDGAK

As to `CC(C)C[C@H](CN)CC(=O)O` [pregabalin], the “effective therapeutic ratio based on self-evaluation of patients” value in experiment [1] is given as “approximately 50%”.

As for `Cn1nccc1[C@H]1CCCC[C@@H]1Oc1ccc(S(=O)(=O)Nc2ccncn2)c(F)c1Cl` (relative stereo) [Example 79, 3-Chloro-2-fluoro-4-{[(1S*,2R*)-2-(1-methyl-1H-pyrazol-5-yl)cyclohexyl]oxy}-N-(pyrimidin-4-yl)benzenesulfonamide], on hNav 1.7, the negative logarithm of the IC50 (pIC50) (usually −log10 of the IC50, conventionally taken in molar units) is 7.15. Moreover, the “Ratio of improving pain score (%)” value in experiment [2] is recorded as “C (“C” when the rate was 0 to 30%)”.

As to `Cc1cc(S(=O)(=O)Nc2ccncn2)c(F)cc1O[C@H]1CCCC[C@@H]1c1cn[nH]c1` (relative stereo) [Example 81, 2-Fluoro-5-methyl-4-{[(1S*,2R*)-2-(1H-pyrazol-4-yl)cyclohexyl]oxy}-N-(pyrimidin-4-yl)benzenesulfonamide], the pIC50 on hNav 1.7 was 6.82. The “Ratio of improving pain score (%)” value in experiment [2] was “C (“C” when the rate was 0 to 30%)”.

For `Cn1nccc1[C@H]1CCCC[C@@H]1Oc1ccc(S(=O)(=O)Nc2ccncn2)c(F)c1` (relative stereo) [Example 44, 2-Fluoro-4-{[(1S*,2R*)-2-(1-methyl-1H-pyrazol-5-yl)cyclohexyl]oxy}-N-(pyrimidin-4-yl)benzenesulfonamide], on hNav 1.7, the pIC50 was 6.48. Besides, the “Ratio of improving pain score (%)” value in experiment [2] is “C (“C” when the rate was 0 to 30%)”.

With `Cn1nccc1[C@H]1CCC(C)(C)C[C@@H]1Oc1cc(F)c(S(=O)(=O)Nc2ccncn2)cc1F` (relative stereo) [Example 72, 4-{[(1S*,2R*)-5,5-Dimethyl-2-(1-methyl-1H-pyrazol-5-yl)cyclohexyl]oxy}-2,5-difluoro-N-(pyrimidin-4-yl)benzenesulfonamide], the pIC50 at hNav 1.7 was 7.44. Also, in experiment [2], the “Ratio of improving pain score (%)” value is recorded as “C (“C” when the rate was 0 to 30%)”.

As for `O=S(=O)(Nc1ccncn1)c1ccc(O[C@H]2CC(F)(F)CC[C@@H]2c2cn[nH]c2)cc1F` (relative stereo) [Example 147, 4-{[(1S*,2R*)-5,5-Difluoro-2-(1H-pyrazol-4-yl)cyclohexyl]oxy}-2-fluoro-N-(pyrimidin-4-yl)benzenesulfonamide], on hNav 1.7, the pIC50 is 6.22. Moreover, the “Ratio of improving pain score (%)” value in experiment [2] is “C (“C” when the rate was 0 to 30%)”.

With `O=S(=O)(Nc1ccncn1)c1c(F)cc(O[C@H]2CCCC[C@@H]2c2cn[nH]c2)cc1F` [Example 171, 2,6-Difluoro-4-{[(1S,2R)-2-(1H-pyrazol-4-yl)cyclohexyl]oxy}-N-(pyrimidin-4-yl)benzenesulfonamide], the pIC50 on hNav 1.7 was 7.37. Also, in experiment [2], the “Ratio of improving pain score (%)” value is listed as “B (“B” when the rate was 31 to 60%)”.

As to `O=S(=O)(Nc1ccncn1)c1c(F)cc(O[C@H]2CCC[C@@H]2c2ccn[nH]2)cc1F` (relative stereo) [Example 139, 2,6-Difluoro-4-{[(1S*,2R*)-2-(1H-pyrazol-5-yl)cyclopentyl]oxy}-N-(pyrimidin-4-yl)benzenesulfonamide], the negative logarithm of the IC50 (pIC50) on hNav 1.7 is 7.46. Also, the “Ratio of improving pain score (%)” value in experiment [2] is “C (“C” when the rate was 0 to 30%)”.

With `Cn1nccc1[C@H]1CCC[C@@H]1Oc1ccc(S(=O)(=O)Nc2ccncn2)c(F)c1` (relative stereo) [Example 29, 2-Fluoro-4-{[(1S*,2R*)-2-(1-methyl-1H-pyrazol-5-yl)cyclopentyl]oxy}-N-(pyrimidin-4-yl)benzenesulfonamide], the pIC50 at hNav 1.7 is 5.74. The “Ratio of improving pain score (%)” value in experiment [2] is reported as “A (“A” when the rate was 61 to 100%)”.

Consider `O=S(=O)(Nc1ccncn1)c1cc(Cl)c(O[C@H]2CC(F)(F)CC[C@@H]2c2cn[nH]c2)cc1F` (relative stereo) [Example 152, 5-Chloro-4-{[(1S*,2R*)-5,5-difluoro-2-(1H-pyrazol-4-yl)cyclohexyl]oxy}-2-fluoro-N-(pyrimidin-4-yl)benzenesulfonamide], for which the pIC50 at hNav 1.7 is 7.77. Further, the “Ratio of improving pain score (%)” value in experiment [2] was “B (“B” when the rate was 31 to 60%)”.

For the compound `O=S(=O)(Nc1ccncn1)c1c(F)cc(O[C@H]2CC(F)(F)CC[C@@H]2c2cn[nH]c2)cc1F` (relative stereo) [Example 104, 4-{[(1S*,2R*)-5,5-Difluoro-2-(1H-pyrazol-4-yl)cyclohexyl]oxy}-2,6-difluoro-N-(pyrimidin-4-yl)benzenesulfonamide], the pIC50 on hNav 1.7 was 7.15. Also, the “Ratio of improving pain score (%)” value in experiment [2] is reported as “B (“B” when the rate was 31 to 60%)”.

In the case of `Cn1nccc1[C@H]1CC(F)(F)C[C@@H]1Oc1ccc(S(=O)(=O)Nc2ccncn2)c(F)c1F` (relative stereo) [Example 132, 4-{[(1S*,2R*)-4,4-Difluoro-2-(1-methyl-1H-pyrazol-5-yl)cyclopentyl]oxy}-2,3-difluoro-N-(pyrimidin-4-yl)benzenesulfonamide], the pIC50 at hNav 1.7 is 6.70. In addition, the “Ratio of improving pain score (%)” value in experiment [2] is on record as “A (“A” when the rate was 61 to 100%)”.

Consider `Cc1c(O[C@H]2CC(F)(F)CC[C@@H]2c2ccnn2C)ccc(S(=O)(=O)Nc2ccncn2)c1F` (relative stereo) [Example 84, 4-{[(1S*,2R*)-5,5-Difluoro-2-(1-methyl-1H-pyrazol-5-yl)cyclohexyl]oxy}-2-fluoro-3-methyl-N-(pyrimidin-4-yl)benzenesulfonamide], for which the pIC50 on hNav 1.7 was 7.44. Besides, the “Ratio of improving pain score (%)” value in experiment [2] is reported as “B (“B” when the rate was 31 to 60%)”.

With `Cc1cc(S(=O)(=O)Nc2ccncn2)ccc1O[C@H]1CCC[C@@H]1c1ccnn1C` (relative stereo) [Example 52, 3-Methyl-4-{[(1S*,2R*)-2-(1-methyl-1H-pyrazol-5-yl)cyclopentyl]oxy}-N-(pyrimidin-4-yl)benzenesulfonamide], the pIC50 at hNav 1.7 was 7.08. Further, in experiment [2], the “Ratio of improving pain score (%)” value was “B (“B” when the rate was 31 to 60%)”.

`Nc1n[nH]cc1[C@H]1CCCC[C@@H]1Oc1cc(F)c(S(=O)(=O)Nc2cscn2)c(F)c1` (relative stereo) [Example 116, 4-{[(1S*,2R*)-2-(3-Amino-1H-pyrazol-4-yl)cyclohexyl]oxy}-2,6-difluoro-N-(1,3-thiazol-4-yl)benzenesulfonamide]: the pIC50 at hNav 1.7 was 6.77. Moreover, in experiment [2], the “Ratio of improving pain score (%)” value is recorded as “B (“B” when the rate was 31 to 60%)”.

For `Cc1cc(S(=O)(=O)Nc2nncs2)c(F)cc1O[C@H]1CC(F)(F)CC[C@@H]1c1ccnn1C` (relative stereo) [Example 125, 4-{[(1S*,2R*)-5,5-Difluoro-2-(1-methyl-1H-pyrazol-5-yl)cyclohexyl]oxy}-2-fluoro-5-methyl-N-(1,3,4-thiadiazol-2-yl)benzenesulfonamide], the pIC50 at hNav 1.7 is 6.70. The “Ratio of improving pain score (%)” value in experiment [2] is listed as “C (“C” when the rate was 0 to 30%)”.

Take `Cn1nccc1[C@H]1C[C@@H](OCc2ccccc2)C[C@@H]1Oc1cc(F)c(S(=O)(=O)Nc2ccncn2)cc1F` (relative stereo) [Example 97, 4-{[(1S*,2R*,4R*)-4-(Benzyloxy)-2-(1-methyl-1H-pyrazol-5-yl)cyclopentyl]oxy}-2,5-difluoro-N-(pyrimidin-4-yl)benzenesulfonamide]: the pIC50 on hNav 1.7 was 7.47. For the same compound, the “Ratio of improving pain score (%)” value in experiment [2] is “C (“C” when the rate was 0 to 30%)”.

Regarding `Cc1cc(S(=O)(=O)Nc2ccncn2)c(F)cc1O[C@H]1CCC[C@@H]1c1ccn[nH]1` [Example 148, 2-Fluoro-5-methyl-4-{[(1S,2R)-2-(1H-pyrazol-5-yl)cyclopentyl]oxy}-N-(pyrimidin-4-yl)benzenesulfonamide], the pIC50 at hNav 1.7 is 7.74. The “Ratio of improving pain score (%)” value in experiment [2] is recorded as “B (“B” when the rate was 31 to 60%)”.

On to `Cc1cc(S(=O)(=O)Nc2ccncn2)c(F)cc1O[C@H]1CCCC[C@@H]1c1c[nH]nc1N` (relative stereo) [Example 68, 4-{[(1S*,2R*)-2-(3-Amino-1H-pyrazol-4-yl)cyclohexyl]oxy}-2-fluoro-5-methyl-N-(pyrimidin-4-yl)benzenesulfonamide], for which the pIC50 on hNav 1.7 is 7.07. Besides, the “Ratio of improving pain score (%)” value in experiment [2] is on record as “B (“B” when the rate was 31 to 60%)”.

For `CCn1nccc1[C@H]1CCC[C@@H]1Oc1cc(F)c(S(=O)(=O)Nc2ccncn2)cc1F` (relative stereo) [Example 37, 4-{[(1S*,2R*)-2-(1-Ethyl-1H-pyrazol-5-yl)cyclopentyl]oxy}-2,5-difluoro-N-(pyrimidin-4-yl)benzenesulfonamide], the pIC50 at hNav 1.7 is 6.68. Also, in experiment [2], the “Ratio of improving pain score (%)” value is reported as “C (“C” when the rate was 0 to 30%)”.

Turning to `Cn1nccc1[C@H]1CCCCC[C@@H]1Oc1ccc(S(=O)(=O)Nc2ccncn2)cc1C#N` (relative stereo) [Example 55, 3-Cyano-4-{[(1S*,2R*)-2-(1-methyl-1H-pyrazol-5-yl)cycloheptyl]oxy}-N-(pyrimidin-4-yl)benzenesulfonamide], at hNav 1.7, the pIC50 is 7.41. For the same compound, in experiment [2], the “Ratio of improving pain score (%)” value is “C (“C” when the rate was 0 to 30%)”.

With `Cn1nccc1[C@H]1CC(C)(C)C[C@@H]1Oc1cc(F)c(S(=O)(=O)Nc2ccncn2)cc1F` (relative stereo) [Example 93, 4-{[(1S*,2R*)-4,4-Dimethyl-2-(1-methyl-1H-pyrazol-5-yl)cyclopentyl]oxy}-2,5-difluoro-N-(pyrimidin-4-yl)benzenesulfonamide], at hNav 1.7, the negative-log IC50 (pIC50) was 7.19. Further, the “Ratio of improving pain score (%)” value in experiment [2] is on record as “B (“B” when the rate was 31 to 60%)”.

On to `O=S(=O)(Nc1ccncn1)c1cc(Cl)c(O[C@H]2CCC[C@@H]2c2ccn[nH]2)cc1F` [Example 150, 5-Chloro-2-fluoro-4-{[(1S,2R)-2-(1H-pyrazol-5-yl)cyclopentyl]oxy}-N-(pyrimidin-4-yl)benzenesulfonamide], for which, at hNav 1.7, the pIC50 was 7.68. Moreover, the “Ratio of improving pain score (%)” value in experiment [2] is “C (“C” when the rate was 0 to 30%)”.

Turning to `Cc1cc(S(=O)(=O)Nc2ccncn2)c(F)cc1O[C@H]1CCC[C@@H]1c1ccn[nH]1` (relative stereo) [Example 138, 2-Fluoro-5-methyl-4-{[(1S*,2R*)-2-(1H-pyrazol-5-yl)cyclopentyl]oxy}-N-(pyrimidin-4-yl)benzenesulfonamide], on hNav 1.7, the pIC50 is 7.62. Also, in experiment [2], the “Ratio of improving pain score (%)” value is “B (“B” when the rate was 31 to 60%)”.

These data come from US9493448B2, “Cycloalkane derivatives” (Daiichi Sankyo Company, Limited, priority 2012, dated 2016).
